Numbering of substitutions follows the chain as printed.
Key:
FACI53 [1] = target: T1, FACI53 (Bos taurus, UniProt P07107, A54C); experiment: Fluorescence emission change of FACI-53 on titration with CoA and acyl-CoA esters; type: binding, bovine
T1 construct: badan (6-bromoacetyl-2-dimethylaminonaphthalene) fluorophore on the introduced Cys-53; made in house; host or cells: E. coli BL21(DE3)pLysS, pET3a vector
T1 sequence (P07107 2-87 A54C): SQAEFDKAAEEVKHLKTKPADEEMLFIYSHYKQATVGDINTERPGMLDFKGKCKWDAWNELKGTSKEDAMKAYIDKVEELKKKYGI

FACI53 [2] = target: T1, FACI53; experiment: Isoelectrical focusing of acyl-CoA binding to FACI53; design: species or system bovine; settings: ligand in four-fold molar excess over protein
Experimental: All the gels were prepared with ligands (1-7) in four-fold molar excess over protein. […] The protein-ligand complex shifted to a pl around 3.8. Legend: 1: Water, 2: CoA-SH, 3: C4-CoA, 4: C8-CoA, 5: C12-CoA, 6: C16-CoA, 7: C20-CoA, 8: Broad pl Calibration Kit (pH 3-10).
Quantitative determination of binding affinities (KD) were performed by isothermal titration micro calorimetry as previously described (Faergeman et. al., 1996; Biochemistry 35, 14118-14126). Qualitative evaluation of relative binding affinities were determined by isoelectrical focusing using the Pharmacia Fast Gel system according to the prescriptions given by the manufacture. Fluorescence emission changes induced by acyl-CoA binding to badan modified protein were determined as follows: 5 μl portions of acyl-CoAs were added from stock solutions disolved in binding buffer, (10 mM Hepes, 150 mM NaCL, 1 mM NaHPO4, pH 7.4) containing 3.4 μM Badan derivatized protein to a 1 ml 3.4 μM solution of the Badan derivatized ACBP in the same buffer. The fluorescence emission was measured on a SPEX FLOUROLOG (Industries Inc, Edison N.J., USA) with excitation at 400 nm and emission scan from 400 nm to 550 nm. […]

FACI-24 = target: T2, FACI-24 (Bos taurus, UniProt P07107, M25C); experiment: Fluorescence emission change of FACI-24 on titration with CoA and acyl-CoA esters; type: binding, bovine
T2 construct: made in house; host or cells: E. coli BL21(DE3)pLysS, pET3a vector
T2 sequence (P07107 2-87 M25C): T1 sequence (P07107 2-87 A54C) with M24C, C53A

CCCCCCCCCCCCCCCC(=O)SCCNC(=O)CCNC(=O)[C@H](O)C(C)(C)COP(=O)(O)OP(=O)(O)OC[C@H]1O[C@@H](n2cnc3c(N)ncnc32)[C@H](O)[C@@H]1OP(=O)(O)O [C16:0-CoA, palmitoyl-CoA]
Magnitude of emission of FACI-53, fold increase (FACI53 [1]): 1.3 fold
Fluorescence emission maximum of FACI-53 with ligand (FACI53 [1]; 525 nm when no ligand present, excitation 400 nm): 496 nm
Relative emission of FACI-53 at 495 nm, fold increase (FACI53 [1]; emission at 495 nm): 2.2 fold
Binding to FACI53 by isoelectrical focusing (FACI53 [2]): shown to bind
Fold increase in emission of FACI-24 at 464 nm (FACI-24; emission at 464 nm): 5,5 fold
Downshift in emission maximum of FACI-24 (FACI-24; emission maximum without ligand 510 nm, excitation 400 nm): 46 nm
